Columns and labels:
[1] = test system: Male spontaneously hypertensive rats (SHR), arterial blood pressure; assay: Depressor response after intraduodenal administration (1 mg/kg), Table 2; type: in vivo, rat; settings: for Half-life: '120<' means greater than 120
Protocol: Arterial blood pressure was measured through the catherized artery with a pressure transducer (MPU-0.5, manufactured by Nihon Kohden Kabushiki Kaisha). The catheter was inserted into the abdominal aorta via the median coccygcal artery of SHR under light ether anesthesia. The recordings were made on a rectigraph (manufactured by Sanei Sokki Kabushiki Kaisha). The 1,4-dihydropyridine derivatives prepared in the foregoing examples were administered with catheter which was inserted previously into the caudal vein or duodenum at least two hours after the operation. SHR were restrained with wire mesh cage immediately after the operation.

[2] = test system: Male spontaneously hypertensive rats (SHR), arterial blood pressure; assay: Depressor response after intravenous administration (30 μg/kg), Table 1; type: in vivo, rat; settings: for Duration: '90<' means greater than 90
Protocol: Male spontaneously hypertensive rats (SHR) which had mean arterial blood pressures higher than 140 mmHg were used for the experiments. Arterial blood pressure was measured through the catherized artery with a pressure transducer (MPU-0.5, manufactured by Nihon Kohden Kabushiki Kaisha). The catheter was inserted into the abdominal aorta via the median coccygcal artery of SHR under light ether anesthesia. The recordings were made on a rectigraph (manufactured by Sanei Sokki Kabushiki Kaisha). The 1,4-dihydropyridine derivatives prepared in the foregoing examples were administered with catheter which was inserted previously into the caudal vein or duodenum at least two hours after the operation. SHR were restrained with wire mesh cage immediately after the operation. Each derivative to be tested was dissolved in 1.5% PVP/ethanol, and then diluted with 0.9% saline or intravenous administration (30 μg/kg), or suspended in 5% gum arabic solution of intraduodenal administration (1 mg/kg).

[3] = test system: Male SHR, systolic blood pressure; assay: Systolic blood pressure by tail cuff method, oral administration (3 mg/kg), Table 4; type: in vivo, rat; settings: conscious SHR; for Duration: '24<' means greater than 24
Protocol: Systolic blood pressure was measured by the tail cuff method with electrophygmomanometer (PE-300, made by Narco Co.). Each derivative (3 mg/kg) was administered orally, suspended in 5% gum arabic solution.

[4] = test system: rat (SHR), blood pressure and heart rate; assay: Depressor response of trans- and cis-forms, dose-response intravenous, Tables 5 and 6; type: in vivo
Protocol: Male spontaneously hypertensive rats (SHR) which had mean arterial blood pressures higher than 140 mmHg were used for the experiments. Arterial blood pressure was measured through the catherized artery with a pressure transducer (MPU-0.5, manufactured by Nihon Kohden Kabushiki Kaisha). The catheter was inserted into the abdominal aorta via the median coccygcal artery of SHR under light ether anesthesia. The recordings were made on a rectigraph (manufactured by Sanei Sokki Kabushiki Kaisha). The 1,4-dihydropyridine derivatives prepared in the foregoing examples were administered with catheter which was inserted previously into the caudal vein or duodenum at least two hours after the operation. SHR were restrained with wire mesh cage immediately after the operation. […]

Row | Molecule | The time to reach the lowest BP [1] [min] | ΔBP (Maximum depressor response) [1] [mmHg] | Half-life [1] [h] | The time to reach the lowest BP [2] [min] | ΔBP (Maximum depressor response) [2] [mmHg] | Duration [2] [min] | also measured
1 | 1-methyl-3-thienyl-2-propenyl methyl 4-(3-nitrophenyl)-2,6-dimethyl-1,4-dihydropyridine-3,5-dicarboxylate [Example 36] | 130 | 59 | > 4 | 25.0 | 69 | > 220 | 
2 | C=CCOC(=O)C1=C(C)NC(C)=C(C(=O)OC)C1c1cccc([N+](=O)[O-])c1 (centres unmarked) [C, 4(3-nitrophenyl)-2,6-dimethyl-1,4-dihydropyridine-3,5-dicarboxylic aci 3methyl ester 5allyl ester, reference compound] | 8 | 20 | 0.333 |  |  |  | 
3 | C#CCOC(=O)C1=C(C)NC(C)=C(C(=O)OC)C1c1cccc([N+](=O)[O-])c1 (centres unmarked) [D, 4(3-nitrophenyl)-2,6-dimethyl-1,4-dihydropyridine-3,5-dicarboxylic aci 3methyl ester 5propargyl ester, reference compound] |  | 0 |  |  |  |  | 
4 | COC(=O)C1=C(C)NC(C)=C(C(=O)OCCCc2ccccc2)C1c1cccc([N+](=O)[O-])c1 (centres unmarked) [E, 4(3-nitrophenyl)-2,6-dimethyl-1,4-dihydropyridine-3,5-dicarboxylic aci 3methyl ester 5(3-phenyl)-1-propyl ester, reference compound] |  | 0 |  |  |  |  | 
5 | COC(=O)C1=C(C)NC(C)=C(C(=O)OCCC=Cc2ccccc2)C1c1cccc([N+](=O)[O-])c1 (centres unmarked) [Example 4, 4-phenyl-3-butenyl methyl 4-(3-nitrophenyl)-2,6-dimethyl-1,4-dihydropyridine-3,5-dicarboxylate] | 105 | 20 | > 2.83 | 1.3 | 63.3 | > 90 | 
6 | COC(=O)C1=C(C)NC(C)=C(C(=O)OCCC=Cc2cccs2)C1c1cccc([N+](=O)[O-])c1 (stereo not drawn) [Example 11, 4-α-thienyl-3-butenyl methyl 4-(3-nitrophenyl)-2,6-dimethyl-1,4-dihydropyridine-3,5-dicarboxylate] | 200 | 25 | 4 | 1.6 | 60 | 100 | 
7 | COC(=O)C1=C(C)NC(C)=C(C(=O)OCCC=Cc2ccc3ccccc3c2)C1c1cccc([N+](=O)[O-])c1 (stereo not drawn) [Example 12, 4-β-naphthyl-3-butenyl methyl 4-(3-nitrophenyl)-2,6-dimethyl-1,4-dihydropyridine-3,5-dicarboxylate] |  |  |  |  |  |  | ΔBP After 1 hour [3]: -30 mmHg; ΔBP After 3 hours [3]: -55 mmHg; Duration [3]: > 24 h
8 | CCOC(=O)C1=C(C)NC(C)=C(C(=O)OCC=Cc2ccccc2)C1c1cccc([N+](=O)[O-])c1 (centres unmarked) [Example 15, Cinnamyl ethyl 4-(3-nitrophenyl)-2,6-dimethyl-1,4-dihydropyridine-3,5-dicarboxylate] | 75 | 45 | > 2 |  |  |  | ΔBP After 3 hours [3]: -35 mmHg; Duration [3]: 7 to 24 h
9 | COC(=O)C1=C(C)NC(C)=C(C(=O)OC(C)C=Cc2ccccc2)C1c1cccc([N+](=O)[O-])c1 (centres unmarked) [Example 30, 1-methyl-3-phenyl-2-propenyl methyl 4-(3-nitrophenyl)-2,6-dimethyl-1,4-dihydropyridine-3,5-dicarboxylate] | 65 | 89 | > 4 | 5.0 | 75 | > 120 | 
10 | COC(=O)C1=C(C)NC(C)=C(C(=O)OC(C)C=Cc2ccco2)C1c1cccc([N+](=O)[O-])c1 (centres unmarked) [Example 33, 1-methyl-3-furyl-3-propenyl methyl 4-(3-nitrophenyl)-2,6-dimethyl-1,4-dihydropyridine-3,5-dicarboxylate] | 22 | 100 | > 4 | 10.0 | 85 | > 240 | 
11 | CC1=C(C(=O)OCC=Cc2ccccc2)C(c2cccc([N+](=O)[O-])c2)C(C(=O)OCCOc2ccccc2)=C(C)N1 (centres unmarked) [Example 44, Cinnamyl 2-phenoxyethyl 4-(3-nitrophenyl)-2,6-dimethyl-1,4-dihydropyridine-3,5-dicarboxylate] |  |  |  | 7 | 43 |  | halflife (number in parentheses in Duration column) [2]: 0.75 h; ΔBP After 1 hour [3]: -30 mmHg; ΔBP After 3 hours [3]: -70 mmHg; Duration [3]: 7 to 24 h
12 | COC(=O)C1=C(C)NC(C)=C(C(=O)OCCCC=Cc2ccccc2)C1c1cccc([N+](=O)[O-])c1 (centres unmarked) [Example 50, Methyl 5-phenyl-4-pentenyl 4-(3-nitrophenyl)-2,6-dimethyl-1,4-dihydropyridine-3,5-dicarboxylate] |  |  |  | 2 | 64 | > 90 | ΔBP After 1 hour [3]: -75 mmHg
13 | COC(=O)C1=C(C)NC(C)=C(C(=O)OC/C=C\c2ccccc2)C1c1cccc([N+](=O)[O-])c1 (stereo not drawn) [Example 56, Methyl (Z)-3-phenyl-2-propenyl 4-(3-nitrophenyl)-2,6-dimethyl-1,4-dihydropyridine-3,5-dicarboxylate (cis)] |  |  |  | 1.3 | 40.3 |  | Depressure Response MaxΔBP ([4]; 10 μg/kg i.v.): 16.0 mmHg; Depressure Response Peak ([4]; 10 μg/kg i.v.): 1.2 min; MaxΔHR (Heart rates) ([4]; 10 μg/kg i.v.): 30.0 beats/min; T 1/2 (Halflife) ([4]; 10 μg/kg i.v.): 0.105 h; Depressure Response MaxΔBP ([4]; 30 μg/kg i.v.): 40.3 mmHg; Depressure Response Peak ([4]; 30 μg/kg i.v.): 1.3 min; MaxΔHR (Heart rates) ([4]; 30 μg/kg i.v.): 80.0 beats/min; T 1/2 (Halflife) ([4]; 30 μg/kg i.v.): 0.198 h; Depressure Response MaxΔBP ([4]; 100 μg/kg i.v.): 67.5 mmHg; Depressure Response Peak ([4]; 100 μg/kg i.v.): 1.8 min; MaxΔHR (Heart rates) ([4]; 100 μg/kg i.v.): 87.5 beats/min; T 1/2 (Halflife) ([4]; 100 μg/kg i.v.): 0.533 h; ED40 ([4]; Rattus norvegicus, intravenous, from regression line): 0.0299 mg/kg
14 | CC1=C(C(=O)OCC=CC=Cc2ccccc2)C(c2cccc([N+](=O)[O-])c2)C(C(=O)OC(C)C)=C(C)N1 (centres unmarked) [Example 61, Isopropyl 5-phenyl-2,4-pentadienyl 4-(3-nitrophenyl)-2,6-dimethyl-1,4-dihydropyridine-3,5-dicarboxylate] |  |  |  | 7.0 | 85 | > 90 | ΔBP After 1 hour [3]: -40 mmHg; ΔBP After 3 hours [3]: -100 mmHg
15 | CC=CC=CCOC(=O)C1=C(C)NC(C)=C(C(=O)OC)C1c1cccc([N+](=O)[O-])c1 (centres unmarked) [Example 66, methyl 2,4-hexadienyl 4-(3-nitrophenyl)-2,6-dimethyl-1,4-dihydropyridine-3,5-dicarboxylate] | 35 | 65 | > 2 | 1.4 | 71.7 | > 90 | halflife (number in parentheses in Duration column) [2]: 0.722 h

Source: US4672068A, “Antihypertensive 1,4-dihydropyridines having a conjugated ester” (Fujirebio Kabushiki Kaisha, priority 1984, dated 1987)
